Where two headings read alike, the source gives them in different places.
Experiment: Pharmacokinetic studies in C57BL/6 mice (plasma and tissues)
Type: in vivo, mouse
Conditions: for AUC(0-t) / Cmax / Tmax / AUC(0-inf) / half-life / bioavailability: both sexes, C57BL/6, mouse; for bioavailability: read-out: F (absolute bioavailability)
Protocol: To overcome the generally poor PK profile of catechins, we developed a proprietary formulation that allows for the delivery of these drugs in high concentrations for oral (PO) or intranasal (IN) use. Our liquid formulation is based on the solubilizer and penetration enhancer (2-hydroxypropyl)-β-cyclodextrin (HP-β-CD), PEG-400, and water. This vehicle allows us to achieve high drug concentration in dosing solution (up to 20% w/w) when needed. PK studies were conducted for 1c in adult male and female C57BL/6 mice (n = 3/sex/time point) using (1) a single IV dose (5 mg/kg), (2) an IN dose (60 mg/kg, 5 µL of a clear solution/nostril/twice), and (3) a single PO dose (100 mg/kg). We analyzed the concentration of the drug in several tissues, including the brain, lungs, liver, and plasma. We observed that this class of molecules is stable in circulation; however, when the tissues are harvested for bioanalytical work, the drug undergoes rapid degradation, probably because of the direct contact with oxygen and metals, which catalyzes its rapid degradation/oxidation. We were able to stabilize the drug in blood by the immediate addition of ascorbic acid and TCEP [29]; however, the same was not possible with solid organs such as the brain and liver, which need to be collected through surgery and homogenized before any stabilizing agent can be added. Therefore, tissue PK data tend to vary.
C57BL/6J mice were given a single dose of drug via the IN or PO route. […] For PO delivery, we replaced water with saline. The volume for IN delivery was 5 µL/nostril, and the volume used for oral delivery was 10 mL/kg. After sacrifice, blood (500 µL) was collected into K2EDTA microtubes and kept on ice all times (must be centrifuged within 30 min of collection). Blood was centrifuged in EDTA vacuum at 4 °C at 15,000× g for 4 min; ~250 µL of plasma was collected into polyethylene tubes containing 50 µL of AA/TCEP stabilizing solution (20 mM ascorbic acid and 13 mM TCEP in 50 mM K2HPO4 buffer; the pH of the solution was adjusted to 6.5 using 2 M NaOH). Then, 200 µL of the collected plasma was mixed with (1) 24 µL of a solution of 10% ascorbic acid and 0.1% EDTA in 40 mM NaH2PO4; (2) 40 µL of 50 mM sodium phosphate (pH 7.4); (3) 500 units of β-D-glucuronidase type X-A from Escherichia coli (Sigma Chemical Co, St Louis, MO, USA), and (4) 4 units of sulfatase type VIII from abalone entrails (Sigma Chemical Co). The mixture was incubated at 37 °C for 45 min. Plasma was then extracted by the addition of 0.5 mL ACN; the mixture was vortex-mixed for 2 min, then snap-frozen with isopropanol/carbon dioxide dry ice, and the upper layer of ACN was removed. The process was repeated another 2 times. The ACN fractions were pooled into a polyethylene tube kept on ice. The combined fractions were evaporated under a gentle stream of nitrogen at ambient temperature. The residue obtained after evaporation was reconstituted in 200 µL of 75 mM citric acid//25 mM ammonium acetate: ACN (75:25 by vol), and vortexed vigorously for 5 min, and 20 µL of the resulting solution was injected into the LC-MS/MS column.
Drug analysis in tissues: About ~0.4 g of the tissue was homogenized with 1 mL of ice-cold 0.4 M sodium phosphate buffer containing 6 mg of ascorbic acid and 0.5 mg of Na2EDTA (final pH of 6.5). After centrifugation at 4 °C at 15,000× g for 4 min, the supernatant was collected into polyethylene tubes containing 50 µL of the AA/TCEP stabilizing solution. Then 1 U of sulfatase and 250 U of β-glucuronidase were added to the abovementioned homogenized mixture. Samples were incubated at 37 °C for 45 min, then extracted, dried, and resuspended in a manner similar to that for plasma. Samples were then analyzed by LC-MS/MS.

[1] = inhaled or intranasal, IN (60 mg/kg), brain
[2] = inhaled or intranasal, IN (60 mg/kg), plasma

SMILES: COc1cc(C(=O)O[C@@H]2Cc3c(O)cc(O)cc3O[C@H]2c2cc(O)c(O)c(O)c2)c(F)c(O)c1O [Compound 1c]
- Tlast (IN (60 mg/kg), brain): 8 h
- Tlast (IN (60 mg/kg), plasma): 24 h
- Tlast (PO (100 mg/kg), brain): 24 h
- Tlast (PO (100 mg/kg), plasma): 24 h
- AUC(0-t) (PO (100 mg/kg), brain): 2390 ng·h/mL
- Cmax (PO (100 mg/kg), brain): 110 ng/mL
- Tmax (PO (100 mg/kg), brain): 2 h
- AUC(0-inf) (PO (100 mg/kg), plasma): 4280 ng·h/mL
- AUC(0-t) (PO (100 mg/kg), plasma): 4170 ng·h/mL
- Cmax (PO (100 mg/kg), plasma): 684 ng/mL
- Tmax (PO (100 mg/kg), plasma): 1 h
- half-life (PO (100 mg/kg), plasma): 4.7 h
- AUC(0-t) [1]: 116 ng·h/mL
- Cmax [1]: 18 ng/mL
- Tmax [1]: 0.5 h
- AUC(0-inf) [2]: 16100 ng·h/mL
- AUC(0-t) [2]: 15800 ng·h/mL
- Cmax [2]: 2350 ng/mL
- Tmax [2]: 2 h
- half-life [2]: 4.8 h
- AUC(0-inf) (plasma, iv, i.v. (5mg/kg)): 1390 ng·h/mL
- AUC(0-t) (plasma, iv, i.v. (5mg/kg)): 1280 ng·h/mL
- Cmax (plasma, iv, i.v. (5mg/kg)): 657 ng/mL
- Tmax (plasma, iv, i.v. (5mg/kg)): 0 h
- half-life (plasma, iv, i.v. (5mg/kg)): 3.2 h
- bioavailability (plasma, other: intranasal (IN), 60 mg/kg, IN (60 mg/kg), plasma): 100%
- bioavailability (plasma, po, 100 mg/kg, PO (100 mg/kg), plasma): ~16%
- Tlast (i.v. (5mg/kg)): 10 h
